Laboratory results: patent US6844465B2, “Method for preparing highly stable crystals of aspartame derivative” (Ajinomoto Co., Inc., priority 1998, dated 2005)

Tests used:
[1] = on the weight basis, cited from earlier work
[2] = Stability test at 70° C. of crystals (remaining ratio of N-(3,3-dimethylbutyl)-APM); assay type: physicochemical
Protocol: Then, the obtained G-type crystals, D-type crystals and A-type crystals of N-(3,3-dimethylbutyl)-APM were tested at 70° C., concerning their stability. […] The relationship between the storage time and the remaining ratio of N-(3,3-dimethylbutyl)-APM in this test will be shown below in Table 1.

## COC(=O)[C@H](Cc1ccccc1)NC(=O)[C@H](CC(=O)O)NCCC(C)(C)C [N-(3,3-dimethylbutyl)-ATM, N-[N-(3,3-dimethylbutyl)-L-α-aspartyl]-L-phenylalanine methyl ester]
[1]; times that of aspartame
  sweetening potency relative to aspartame: at least 50 times
[1]; times that of sucrose
  sweetening potency relative to sucrose (table sugar): about 10,000 times

## COC(=O)[C@H](Cc1ccccc1)NC(=O)[C@H](CC(=O)O)NCCC(C)(C)C [A-type crystals, N-[N-(3,3-dimethylbutyl)-L-α-aspartyl]-L-phenylalanine methyl ester]
[2]; time elapsed 0 hrs, listed as A
  Remaining Ratio (wt. %): 95 wt. %
[2]; time elapsed 100 hrs, listed as A
  Remaining Ratio (wt. %): 94 wt. %
[2]; time elapsed 271 hrs
  Remaining Ratio (wt. %): 96 wt. %
[2]; time elapsed 271 hrs, listed as A
  Remaining Ratio (wt. %): 96 wt. %

## COC(=O)[C@H](Cc1ccccc1)NC(=O)[C@H](CC(=O)O)NCCC(C)(C)C [D-type crystals, N-[N-(3,3-dimethylbutyl)-L-α-aspartyl]-L-phenylalanine methyl ester]
[2]; time elapsed 0 hrs, listed as D
  Remaining Ratio (wt. %): 95 wt. %
[2]; time elapsed 100 hrs, listed as D
  Remaining Ratio (wt. %): 96 wt. %
[2]; time elapsed 271 hrs
  Remaining Ratio (wt. %): 77 wt. %
[2]; time elapsed 271 hrs, listed as D
  Remaining Ratio (wt. %): 77 wt. %

## COC(=O)[C@H](Cc1ccccc1)NC(=O)[C@H](CC(=O)O)NCCC(C)(C)C [G-type crystals, N-[N-(3,3-dimethylbutyl)-L-α-aspartyl]-L-phenylalanine methyl ester]
[2]; time elapsed 0 hrs, listed as G
  Remaining Ratio (wt. %): 96 wt. %
[2]; time elapsed 100 hrs, listed as G
  Remaining Ratio (wt. %): 48 wt. %
[2]; time elapsed 271 hrs
  Remaining Ratio (wt. %): 18 wt. %
[2]; time elapsed 271 hrs, listed as G
  Remaining Ratio (wt. %): 18 wt. %
